Measurements reported in patent US6299906A, “Process for making submicron particles” (Hoffmann-La Roche Inc., priority 1998, dated 2001).
In brackets after ≈: the same amount, converted by molar mass. Like-named read-outs stand apart in the source and are kept apart here. Each block holds one molecule with its values, some of them ahead of it.

Experiments:
[1] = Solubility of drug substances in liquid carbon dioxide and dimethyl ether (HPLC or gravimetric); format: physicochemical
Protocol: A comparison of solubilities of a number of pharmaceutical drug substances was performed as follows:
Approximately 3-5 g of the drug product was slightly compressed in a uniaxial press to avoid the formation of a stable suspension. The so compressed powder was placed in a pressure chamber with a sapphire glass (30 ml volume). The temperature of the pressure chamber was controlled by water bath. Then the pressure in the chamber was increased using the corresponding gas and equilibrated for 1-3 hours. After equilibration a 1.0 ml sample was drawn under constant pressure and temperature conditions using a high pressure line with a defined volume. […] The sample container was afterwards rinsed with the same liquid to collect the residues of the substance in the sample container.

[2] = Particle size distribution of THL by laser diffraction, influence of the spraying time (Example 2); format: physicochemical; details: for Dv 0.1 / Dv 0.5 / Dv 0.9: CO2 200 bar, 40° C., Brij 96
Description: (§1) The particle size distribution of very small particles of approximately 1 μm is difficult to determine accurately. Two commonly used methods are photon correlation spectroscopy (PCS) and laser diffraction. Photon correlation spectroscopy is commonly used for characterization of submicron suspensions and emulsions. Due to the principle of the measurement, movement of particles, particles larger than 3 to 5 μm cannot be seen with this method. With laser diffraction small particles, >0.1 μm, as well as larger particles, up to 2 mm, can be characterized in parallel. The diffraction of the light is thereby measured at small diffraction angles. For very small particles the method tends to overestimate the particle size due to transmission of light through the particles.
(§2) Formation of fractions of coarse particles was observed especially after clogging of the nozzle, e.g. expansion of a compound dissolved in a compressed gas without modifier. To be able to detect the presence of coarse particles, laser diffraction was chosen to characterize the whole suspension. With its wide dynamic range, laser diffraction allows the detection of particles up to 2 mm that cannot be seen by the PCS method. Since laser diffraction tends to overestimate the particle size (FIGS. 2, 3), all the particle sizes determined by laser diffraction can be considered as too large.
150 g of solid THL and 75 g Brij 96 in a container with two sinter plates was charged into an autoclave having a volume of 6 liter. The autoclave was kept at a temperature of 40° C. with a water bath. Then the autoclave was filled with CO2 up to a pressure of 200 bar and equilibrated for 90 min.
The autoclave was connected to a second autoclave via a heated high pressure line, kept at 40° C. […] The dissolved THL was sprayed into 1.25 liter of an aqueous solution of Brij 96 (0.06%=1 CMC) in this second autoclave. The pressure of the first autoclave was kept constant at 200 bar by pumping in additional gas.
After 90, 150, and 180 minutes of spraying, a sample for particle size distribution was drawn. After 180 min the whole amount of THL/Brij was removed from the first container (≈12% THL in the final suspension).

[3] = Description: as §1
To be able to detect the presence of coarse particles, laser diffraction was chosen to characterize the whole suspension. With its wide dynamic range, laser diffraction allows the detection of particles up to 2 mm that cannot be seen by the PCS method.
The autoclave was kept at a temperature of 40° C. with a water bath. Then the autoclave was filled with DME up to 200 bar and equilibrated for 90 min.
The autoclave was connected to a second autoclave via a heated high pressure line, kept at 25° C., at 5 bar. […] The pressure of the first autoclave was kept constant by pumping in additional gas.

[4] = Particle size distribution of Saquinavir by Photon Correlation Spectroscopy (FIG. 2); format: physicochemical; details: batch no. 1051/30, Angle 90
Description: as §1

[5] = Particle size distribution of Saquinavir by laser diffraction, influence of the pressure in the first container (Example 3); format: physicochemical; details: DME, Aerosol OT, 40° C.
Description: as §1, §2
The autoclave was kept at a temperature of 40° C. with a water bath. Then the autoclave was filled with DME up to different pressures and equilibrated for 90 min.
The autoclave was connected to a second autoclave via a heated high pressure line, kept at 25° C., 5 bar. […] The pressure of the first autoclave was kept constant by pumping in additional gas.
The nozzle diameter was 0.1 mm. As commonly known a further decrease of particle size can be obtained by decrease of the nozzle diameter.

[6] = liquid co2, organic solvent or mixture, CO2, 45° C./200 bar, read-out: solubility (CO2)
[7] = organic solvent or mixture, dimethyl ether, 45° C./200 bar, read-out: solubility (DME)
[8] = surfactant Brij 96, DME 200 bar, 40° C.
[9] = pressure l00 bar (so in the source)

Compound: COc1ccccc1Oc1c(NS(=O)(=O)c2ccc(C(C)(C)C)cc2)nc(-c2ncccn2)nc1OCCO [Bosentan]
solubility [1, 6]: < 1 mg/mL
solubility [1, 7]: 90 mg/mL (≈ 163 mM)

Compound: CCCCCCCCCCC[C@@H](C[C@@H]1OC(=O)[C@H]1CCCCCC)OC(=O)[C@H](CC(C)C)NC=O [Orlistat, Tetrahydrolipstatin]
resulting particle size distribution ([2]; over the whole trial (up to 180 min spraying)): kept almost constant over the whole trial
Dv 0.1 ([2]; spraying time 90 min): 0.6 μm
Dv 0.5 ([2]; spraying time 90 min): 1.4 μm
Dv 0.9 ([2]; spraying time 90 min): 2.9 μm
Dv 0.1 ([2]; spraying time 150 min): 0.4 μm
Dv 0.5 ([2]; spraying time 150 min): 1.5 μm
Dv 0.9 ([2]; spraying time 150 min): 3.5 μm
Dv 0.1 ([2]; spraying time 180 min): 0.9 μm
Dv 0.5 ([2]; spraying time 180 min): 2.1 μm
Dv 0.9 ([2]; spraying time 180 min): 4.5 μm
solubility ([1]; organic solvent or mixture, dimethyl ether, 20° C./4.5 bar, read-out: solubility (DME)): 178 mg/mL (≈ 359 mM)
solubility ([1]; organic solvent or mixture, liquid CO2, 30° C./100 bar, read-out: solubility (CO2)): 6 mg/mL (≈ 12.1 mM)

Continued, values first:

solubility [1, 6]: 3 mg/mL (≈ 9.99 mM)
solubility [1, 7]: 60 mg/mL (≈ 200 mM)
Compound: CC1=C(/C=C/C(C)=C/C=C/C(C)=C\C(=O)O)C(C)(C)CCC1 [Isotretionin]

solubility [1, 6]: 3.5 mg/mL (≈ 13 mM)
solubility [1, 7]: 37 mg/mL (≈ 138 mM)
Compound: O=C(NCCN1CCOCC1)c1ccc(Cl)cc1 [Moclobemide]

Dv 0.1 ([3]; surfactant Aerosol OT, DME): 0.9 μm
Dv 0.5 ([3]; surfactant Aerosol OT, DME): 1.5 μm
Dv 0.9 ([3]; surfactant Aerosol OT, DME): 2.4 μm
Dv 0.1 [3, 8]: 0.7 μm
Dv 0.5 [3, 8]: 1.4 μm
Dv 0.9 [3, 8]: 3.0 μm
solubility [1, 6]: < 1 mg/mL
solubility ([1]; organic solvent or mixture, dimethyl ether, 25° C./100 bar, read-out: solubility (DME)): > 100 mg/mL
Poly [4]: 0.031
ZAve [4]: 254.7
Dv 0.1 ([5]; pressure 50 bar): 0.5 μm
Dv 0.5 ([5]; pressure 50 bar): 3.8 μm
Dv 0.9 ([5]; pressure 50 bar): 6.4 μm
Dv 0.1 ([5]; pressure 200 bar): 0.9 μm
Dv 0.5 ([5]; pressure 200 bar): 1.5 μm
Dv 0.9 ([5]; pressure 200 bar): 2.4 μm
Dv 0.1 ([5]; pressure 280 bar): 0.4 μm
Dv 0.5 ([5]; pressure 280 bar): 0.8 μm
Dv 0.9 ([5]; pressure 280 bar): 1.7 μm
Dv 0.1 [5, 9]: 1.0 μm
Dv 0.5 [5, 9]: 2.1 μm
Dv 0.9 [5, 9]: 4.5 μm
Compound: CC(C)(C)NC(=O)[C@@H]1C[C@@H]2CCCC[C@@H]2CN1C[C@@H](O)[C@H](Cc1ccccc1)NC(=O)[C@H](CC(N)=O)NC(=O)c1ccc2ccccc2n1 [Saquinavir]
